US4861795A, “Treatment of conditions requiring enhanced oxygen availability to mammalian tissues” (Rorer Pharmaceutical Corporation, priority 1988, dated 1989)
Counter-ions that a name gives are not always drawn.

Columns and labels:
[1] = tested on: oxygen-dissociation curve in whole human blood; settings: in vitro, increase of 2,3-DPG; cited from earlier work
[2] = target: T1, 2,3-DPG phosphatase (Homo sapiens, UniProt P07738); experiment: 2,3-Diphosphoglycerate Phosphatase Assay (radiochemical, release of inorganic 32P-phosphate from 2,3-DPG); type: biochemical; settings: 100 μM compound; pH 7.5, 110 μM 32P-labeled 2,3-DPG, 5 μM phosphoglycolate, 37° C., 20 minutes
T1 sequence (P07738 1-259): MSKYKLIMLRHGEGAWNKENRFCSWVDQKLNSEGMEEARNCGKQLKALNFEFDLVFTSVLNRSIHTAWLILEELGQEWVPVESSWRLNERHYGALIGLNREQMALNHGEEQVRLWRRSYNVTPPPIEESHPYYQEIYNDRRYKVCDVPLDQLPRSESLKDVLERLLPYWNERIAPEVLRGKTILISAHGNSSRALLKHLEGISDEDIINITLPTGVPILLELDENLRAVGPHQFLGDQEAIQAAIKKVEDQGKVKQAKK
Procedure: 2,3-Diphosphoglycerate Phosphatase Assay The activity of 2,3-DPG phosphatase was determined radiochemically using a method based on Rose et al. (J. Biol. Chem. 245, 3232-3241, 1970). In this method the activity of the phosphatase is measured by determining the release of inorganic phosphate from the substrate, 2,3-DPG. The test compounds were dissolved in dimethyl sulfoxide at 100 times the final concentration used and then added to the reaction mixture at the beginning of the assay period. In the control experiments equivalent concentration of dimethyl sulfoxide was used. […] At the end of incubation the reaction was stopped by the addition of 0.1 ml of 15% w/v trichloroacetic acid and the sample was centrifuged (Eppendorf microfuge, Model 5413) in order to remove protein precipitates. Then 0.2 ml of the supernatant was withdrawn and mixed with 0.1 ml of 8 M sulfuric acid, 0.1 ml of 5% w/v ammonium molybdate and 0.6 ml of water. The mixture then was extracted with 2 ml of isobutanol/benzene (1:1,v/v) and then centrifuged to effect separation of the phases. 1 ml of the organic phase containing the extracted ^32 p-phosphate was counted in a scintillation counter (Beckman, Model LS 8,000) using a program for ^32 p radioactivity. The activity of the enzyme was expressed as number of mole phosphate release per minute. From the data obtained by employing the test method above-described, the percent inhibition of 2,3-DPG phosphatase was calculated and is shown in Table II.

Row | inhibition at 100 µM [2] [%] | Structure (SMILES) | displacement of the oxygen-dissociation curve (in words) [1]
1 |  | O=C(O)C(COP(=O)(O)O)OP(=O)(O)O (centres unmarked) [2,3-DPG, 2,3-diphosphoglyceric acid] | displaces in vitro the oxygen-dissociation curve to the right of normal
2 | 79.2 | COc1cccc2cc(C(=O)O)c(O)cc12 [a, 5-methoxy-3-hydroxy-2-naphthoic acid] | 
3 | 94.3 | O=C(O)c1cc2cccc(OCc3cccc(C(F)(F)F)c3)c2cc1O [c, 5-(3-trifluoromethylbenzyloxy)-3-hydroxy-2-naphthoic acid] | 
4 | 92.5 | O=C(O)c1cc2cccc(OCCOc3ccccc3)c2cc1O [d, 5-phenoxyethoxy-3-hydroxy-2-naphthoic acid] | 
5 | 74 | O=C(O)c1cc2cccc(OCc3ccccc3)c2cc1O [h, 5-benzyloxy-3-hydroxy-2-naphthoic acid] | 
6 | 99.2 | CCOC(=O)c1cc2cccc(OCCN3CCCC3)c2cc1OCCN1CCCC1 [p, ethyl 3,5-bis[2-(1-pyrrolidinyl)ethoxy]-2-naphthoate monohydrochloride] | 
7 | 97.7 | O=C(O)c1cc2cccc(OCc3ccc(Cl)c(Cl)c3)c2cc1O [q, 5-(3,4-dichlorobenzyloxy)-3-hydroxy-2-naphthoic acid] | 
8 | 97.1 | O=C(O)c1cc2cccc(OCCCc3ccccc3)c2cc1O [r, 3-hydroxy-5-(3-phenylpropoxy)-2-naphthoic acid] | 
9 | 95.6 | O=C(O)c1cc2cccc(OCc3ccc(Cl)cc3Cl)c2cc1O [s, 5-(2,4-dichlorobenzyloxy)-3-hydroxy-2-naphthoic acid] | 
10 | 94.2 | O=C(O)c1cc2cccc(OCc3c(Cl)cccc3Cl)c2cc1O [t, 5-(2,6-dichlorobenzyloxy)-3-hydroxy-2-naphthoic acid] | 
11 | 86.9 | O=C(O)c1cc2cccc(OCCCc3ccc(Cl)c(Cl)c3)c2cc1O [u, 5-[3-(3,4-dichlorophenyl)-propoxy]-3-hydroxy-2-naphthoic acid] | 
12 | 89 | O=C(O)c1cc2cccc(OCc3ccc(F)cc3)c2cc1O [v, 5-(4-fluorobenzyloxy)-3-hydroxy-2-naphthoic acid] | 
13 | 93.6 | O=C(O)c1cc2cccc(OCc3ccc(Cl)c(Cl)c3)c2cc1OCc1ccc(Cl)c(Cl)c1 [w, 3,5-bis-(3,4-dichlorobenzyloxy)-2-naphthoic acid] | 
14 | 100 | C=CCCCCCCCCCOc1cccc2cc(C(=O)O)c(O)cc12 [x, 3-hydroxy-5(undecenyloxy)-2-naphthoic acid] | 

Row | Structure (SMILES) | inhibition at 100 µM [2] [%] | displacement of the oxygen-dissociation curve (in words) [1]
15 | O=C(O)c1cc2cccc(OCCc3ccccc3)c2cc1O [b, 5-phenetoxy-3-hydroxy-2-naphthoic acid] | 94.3 | 
16 | CC(=O)Oc1cccc2cc(C(=O)O)c(O)cc12 [g, 5-acetoxy-3-hydroxy-2-naphthoic acid] | 89.6 | 
17 | O=C(O)c1cc2cccc(OCc3ccccc3)c2cc1OC(=O)C(Cl)Cl [y, 5-benzyloxy-3-dichloroacetoxy-2-naphthoic acid] | 81.9 | 
